In one test the test system is HeLa. In words: ATP-based viability loss in HeLa cells – cell-based, CellTiter-Glo luminescence, cherry-pick samples, cytotoxicity control for MITF activator project, dose response (AID 540259). The format is functional. Conditions: Homo sapiens.
Test [1] deals with BJ. Nature of the test: BJ-TERT-LT-ST fibroblast viability loss – cell-based, RAS-independent, luminescence, dose response (AID 1935).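 Also: BJ fibroblasts immortalized with TERT plus LT and ST oncogenes.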 The format is functional. Conditions: Homo sapiens.
Test [2] is described as follows: alpha-synuclein stem-loop luciferase translation blockers – H4 neuroglioma cells, luminescence, confirmation (AID 1988). The format is functional, cell-based.
Test [3] has as its system BJ. Nature of the test: cells. The format is functional, cell-based. Conditions: Homo sapiens.
The nature of test [4]: Luminescence Cell-Based Dose Response HTS to Identify Inhibitors of 5'UTR Stem-Loop Driven Prion Protein mRNA Translation in H4 Neuroglioblastoma Cells. [Related pubchem assays: 1827 (Project Summary), 1813 (Primary HTS)]. The format is functional.
Test [5] is described as follows: luciferase reporter signal suppression in cells – H4 neuroglioma cells, luminescence, dose response (AID 1990). The format is functional, cell-based. (In a reporter assay the amount or activity of a reporter protein is the signal.)
Test [6] is described as follows: DRD fibroblast viability loss – cell-based, non-viral oncogenic, luminescence, dose response (AID 1934). The format is functional. Conditions: Homo sapiens.
Test [7] has as its system BJ. In words: BJ-TERT fibroblast viability loss – cell-based, RAS-independent, luminescence, dose response (AID 1933). The format is functional. Conditions: Homo sapiens.
Test [8] is described as follows: HEK-293T viability loss after treatment – luminescence, T-cell screen hits, cytotoxicity control for TCR NF-kB inhibitor project, dose response (AID 489026).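 Also: cells exposed to compound about 14 hours before the viability readout.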 The format is functional, cell-based.
Test [9] in a line: Luminescence Cell-Based Dose Response HTS to Identify Activators of Luciferase Translation or Activity in H4 […] Cells. [Related pubchem assays: 1829 (Project Summary), 1814 (Primary HTS)]. The format is functional.
A further test is described as follows: cells. The format is functional.
Test [10] can be described thus: Luminescence Cell-Based Dose Confirmation HTS to Identify Activators of 5'UTR Stem-Loop Driven Alpha-Synuclein mRNA Translation in H4 Neuroglioblastoma Cells. [Related pubchem assays: 1829 (Project Summary), 1814 (Primary HTS)]. The format is functional.
Another test relates to H4. In words: Luminescence Cell-Based Dose Response HTS to Identify Activators of 5'UTR Stem-Loop Driven Prion Protein mRNA Translation in H4 Neuroglioblastoma Cells. [Related pubchem assays: 1829 (Project Summary), 1814 (Primary HTS)]. The format is functional. Conditions: Homo sapiens.
A short description of test [11]: THP-1 cell cytotoxicity, dose response, cytotoxicity control for non-replicating M. tuberculosis project (AID 489025). The format is functional.
The target in test [12] is T1, Peroxisome proliferator-activated receptor gamma/Nuclear receptor coactivator 1 (Homo sapiens, UniProt P37231). In words: TR-FRET dose response biochemical High Throughput Screening assay for agonists of the steroid receptor coactivator 1 (SRC-1) recruitment by the peroxisome proliferator-activated receptor gamma (PPAR gamma): non-selective agonists. [Related pubchem assays (depositor defined):AID1300, AID1808, AID504735, AID631]. The format is protein assay.

Test [13] concerns the target T2, Peroxisome proliferator-activated receptor gamma/Nuclear receptor coactivator 2 (Homo sapiens, UniProt P37231). Nature of the test: TR-FRET dose response biochemical High Throughput Screening assay for agonists of the steroid receptor coactivator 2 (SRC-2) recruitment by the peroxisome proliferator-activated receptor gamma (PPAR gamma): non-selective agonists. [Related pubchem assays: 1297, 1032 ]. The format is functional. Background: In TR-FRET formats the signal depends on donor and acceptor labels being close together.

Test [14] deals with T3, Peroxisome proliferator-activated receptor gamma/Nuclear receptor coactivator 3 (Homo sapiens, UniProt P37231). Nature of the test: TR-FRET dose response biochemical High Throughput Screening assay for agonists of the steroid receptor coactivator 3 (SRC-3) recruitment by the peroxisome proliferator-activated receptor gamma (PPAR gamma): non-selective agonists. [Related pubchem assays: 1301 (Confirmation screen.), 1048 (Primary screen.)]. The format is functional.
T3 sequence (P37231 whole entry): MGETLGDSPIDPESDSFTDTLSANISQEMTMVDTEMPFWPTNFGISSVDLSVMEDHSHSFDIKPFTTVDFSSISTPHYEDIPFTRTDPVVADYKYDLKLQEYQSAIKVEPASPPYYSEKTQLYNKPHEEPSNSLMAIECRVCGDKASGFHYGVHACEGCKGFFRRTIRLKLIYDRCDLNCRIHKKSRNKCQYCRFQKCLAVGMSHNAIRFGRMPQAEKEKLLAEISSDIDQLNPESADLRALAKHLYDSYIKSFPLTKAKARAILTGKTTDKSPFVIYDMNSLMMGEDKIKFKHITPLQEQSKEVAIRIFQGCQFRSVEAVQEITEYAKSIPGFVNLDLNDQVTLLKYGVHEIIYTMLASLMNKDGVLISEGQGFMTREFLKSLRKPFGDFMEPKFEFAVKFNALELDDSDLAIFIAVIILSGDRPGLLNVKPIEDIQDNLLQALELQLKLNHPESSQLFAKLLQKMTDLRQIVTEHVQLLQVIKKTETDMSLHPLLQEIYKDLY
T3 sequence (Q9Y6Q9 whole entry, further chain): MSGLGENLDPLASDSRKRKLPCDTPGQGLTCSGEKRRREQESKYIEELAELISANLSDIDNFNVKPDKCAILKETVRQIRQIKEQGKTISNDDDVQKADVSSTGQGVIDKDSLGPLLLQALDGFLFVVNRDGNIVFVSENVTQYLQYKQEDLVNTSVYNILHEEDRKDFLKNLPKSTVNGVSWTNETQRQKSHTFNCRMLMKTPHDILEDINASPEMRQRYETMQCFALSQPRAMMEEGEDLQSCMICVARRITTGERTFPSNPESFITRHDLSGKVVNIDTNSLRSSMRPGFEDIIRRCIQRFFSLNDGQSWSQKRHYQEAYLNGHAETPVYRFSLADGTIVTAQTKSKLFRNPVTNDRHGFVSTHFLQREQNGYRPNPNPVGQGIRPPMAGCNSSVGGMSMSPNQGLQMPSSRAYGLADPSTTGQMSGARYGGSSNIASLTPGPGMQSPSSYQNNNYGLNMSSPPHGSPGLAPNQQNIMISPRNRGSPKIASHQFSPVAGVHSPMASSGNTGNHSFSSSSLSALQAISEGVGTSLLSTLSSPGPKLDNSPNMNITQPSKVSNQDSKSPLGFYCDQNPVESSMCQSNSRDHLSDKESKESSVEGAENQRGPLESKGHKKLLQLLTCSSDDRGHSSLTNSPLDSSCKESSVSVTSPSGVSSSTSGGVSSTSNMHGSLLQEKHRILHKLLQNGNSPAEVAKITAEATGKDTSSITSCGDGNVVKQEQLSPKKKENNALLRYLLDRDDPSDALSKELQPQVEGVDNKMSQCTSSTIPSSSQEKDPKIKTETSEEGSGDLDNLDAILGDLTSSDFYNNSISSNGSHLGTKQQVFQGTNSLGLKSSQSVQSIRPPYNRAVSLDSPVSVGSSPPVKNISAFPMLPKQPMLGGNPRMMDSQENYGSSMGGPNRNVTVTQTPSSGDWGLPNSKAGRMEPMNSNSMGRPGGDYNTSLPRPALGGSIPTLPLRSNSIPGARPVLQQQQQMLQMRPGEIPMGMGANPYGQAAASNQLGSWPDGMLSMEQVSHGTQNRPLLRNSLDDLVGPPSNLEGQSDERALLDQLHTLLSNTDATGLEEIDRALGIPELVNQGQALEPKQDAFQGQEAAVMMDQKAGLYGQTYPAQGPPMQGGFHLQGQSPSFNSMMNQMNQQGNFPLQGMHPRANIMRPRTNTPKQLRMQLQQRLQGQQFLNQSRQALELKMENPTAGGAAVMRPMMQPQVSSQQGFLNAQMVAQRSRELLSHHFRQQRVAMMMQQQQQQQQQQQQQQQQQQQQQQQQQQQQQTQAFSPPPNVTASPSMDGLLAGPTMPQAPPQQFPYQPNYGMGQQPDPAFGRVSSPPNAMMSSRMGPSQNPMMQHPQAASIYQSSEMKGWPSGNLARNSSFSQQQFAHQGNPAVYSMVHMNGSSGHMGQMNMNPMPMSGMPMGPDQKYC

The target in a further test is T4, Bcl-2-related protein A1 (Mus musculus, UniProt Q07440).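 Also: confirmatory dose–response counterscreen on Bfl-1, used to check hits from a UBC13 polyubiquitin inhibitor campaign.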
T4 sequence (Q07440 whole entry): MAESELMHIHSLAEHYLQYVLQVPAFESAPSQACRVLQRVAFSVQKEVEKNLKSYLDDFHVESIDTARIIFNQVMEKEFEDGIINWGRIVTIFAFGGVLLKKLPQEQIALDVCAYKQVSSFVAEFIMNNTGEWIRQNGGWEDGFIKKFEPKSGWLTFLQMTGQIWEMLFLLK
The format is functional.

The target in test [15] is T5, Ubiquitin-conjugating enzyme E2 N (Homo sapiens, UniProt P61088).
T5 sequence (P61088 whole entry): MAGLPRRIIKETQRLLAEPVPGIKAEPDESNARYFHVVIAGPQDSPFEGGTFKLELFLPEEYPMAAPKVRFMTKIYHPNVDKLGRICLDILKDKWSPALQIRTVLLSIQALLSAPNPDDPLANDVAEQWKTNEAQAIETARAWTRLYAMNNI
The format is functional.

In test [16] the target is T5, Ubiquitin-conjugating enzyme E2 N. The format is functional. The source holds these as a separate data set.
Another test deals with T6, Aminopeptidase N (Plasmodium falciparum FcB1/Columbia, UniProt O96935).
T6 sequence (O96935 whole entry): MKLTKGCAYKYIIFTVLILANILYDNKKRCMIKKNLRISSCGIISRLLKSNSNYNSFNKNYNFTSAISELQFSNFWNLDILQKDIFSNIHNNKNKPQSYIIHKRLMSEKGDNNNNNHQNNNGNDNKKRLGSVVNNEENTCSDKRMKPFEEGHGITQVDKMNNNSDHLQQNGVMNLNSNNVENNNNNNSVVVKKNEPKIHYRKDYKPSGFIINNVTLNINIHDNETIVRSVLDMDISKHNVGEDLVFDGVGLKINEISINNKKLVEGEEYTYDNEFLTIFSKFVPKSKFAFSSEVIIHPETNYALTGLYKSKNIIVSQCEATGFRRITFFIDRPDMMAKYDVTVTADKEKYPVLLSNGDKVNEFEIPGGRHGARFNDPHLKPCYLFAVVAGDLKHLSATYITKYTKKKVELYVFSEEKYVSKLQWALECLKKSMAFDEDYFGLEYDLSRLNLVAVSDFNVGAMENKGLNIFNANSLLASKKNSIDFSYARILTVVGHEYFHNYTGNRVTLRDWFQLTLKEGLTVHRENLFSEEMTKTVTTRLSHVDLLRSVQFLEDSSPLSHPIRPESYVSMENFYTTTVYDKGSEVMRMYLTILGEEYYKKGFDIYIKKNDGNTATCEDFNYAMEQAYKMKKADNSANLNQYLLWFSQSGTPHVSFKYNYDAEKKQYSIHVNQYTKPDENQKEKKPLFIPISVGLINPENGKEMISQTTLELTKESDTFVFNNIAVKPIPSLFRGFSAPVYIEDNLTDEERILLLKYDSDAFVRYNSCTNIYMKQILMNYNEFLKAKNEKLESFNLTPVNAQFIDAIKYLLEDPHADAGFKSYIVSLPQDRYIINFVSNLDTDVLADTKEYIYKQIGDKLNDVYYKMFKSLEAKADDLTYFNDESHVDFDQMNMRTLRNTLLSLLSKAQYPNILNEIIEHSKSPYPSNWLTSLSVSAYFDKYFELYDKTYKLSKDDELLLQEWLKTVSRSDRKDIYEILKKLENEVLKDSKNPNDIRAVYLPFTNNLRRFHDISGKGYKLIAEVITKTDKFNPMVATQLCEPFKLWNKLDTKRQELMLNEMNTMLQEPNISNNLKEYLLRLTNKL
In words: malaria alanyl aminopeptidase activity blockers – biochemical, fluorogenic H-Leu-NHMec substrate, 1536-well (AID 1445). The arrangement: species or system Plasmodium falciparum 3D7, 3D7.

Test [17] concerns the target T2, Peroxisome proliferator-activated receptor gamma/Nuclear receptor coactivator 2. The format is functional.
The target of test [18] is T1, Peroxisome proliferator-activated receptor gamma/Nuclear receptor coactivator 1. The format is functional.
In test [19] the target is T3, Peroxisome proliferator-activated receptor gamma/Nuclear receptor coactivator 3. The format is functional.
Test [20] relates to Escherichia coli. Nature of the test: microbe, parasite or virus in culture.
The next test relates to Vero. In words: cells. The format is functional. Conditions: Chlorocebus sabaeus.
Test [21] is described as follows: NIH3T3 cell viability loss – ATP luminescence, mouse fibroblasts, counter-screen, dose response (AID 2010).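 Also: cells exposed to compound for about 90 hours before reading.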 The format is functional, cell-based.
Test [22] is described as follows: Trypanosoma cruzi growth suppression in host cells – NIH3T3 host cells, beta-gal luminescence, confirmation (AID 2044).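 Also: intracellular parasites grown in NIH/3T3 mouse fibroblasts as host cells; luminescent beta-galactosidase reporter signal from transgenic T. cruzi replicating inside host cells; inhibitors lower the luminescence signal.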 The format is functional, cell-based.
Test [23] has as its system Escherichia coli. In words: microbe, parasite or virus in culture. The source holds these as a separate data set.
The next test has as its system HEK293. Nature of the test: EBV LMP1 TES2 canonical NF-kB signalling blockers – cell-based, HEK293, luciferase, cherry-pick, dose response (AID 588343). The format is functional. Conditions: Homo sapiens.

These results are taken from ChEMBL document CHEMBL1201862, “PubChem BioAssay data set” (2004).

The AC50 is the concentration giving half of the maximal activity seen. In general, EC50 refers to the concentration needed to bring the measured effect to its halfway point. For orientation: IC50 means the concentration that gives 50% inhibition. As usually defined, the CC50 is the concentration that lowers cell viability or growth by half.

Each structure is given as a SMILES string. Counter-ions that a name gives are not always drawn. Active and inactive are the calls of the source.

T2 sequence (P37231 whole entry): as the sequence (P37231 whole entry) above
T2 sequence (Q15596 whole entry, further chain): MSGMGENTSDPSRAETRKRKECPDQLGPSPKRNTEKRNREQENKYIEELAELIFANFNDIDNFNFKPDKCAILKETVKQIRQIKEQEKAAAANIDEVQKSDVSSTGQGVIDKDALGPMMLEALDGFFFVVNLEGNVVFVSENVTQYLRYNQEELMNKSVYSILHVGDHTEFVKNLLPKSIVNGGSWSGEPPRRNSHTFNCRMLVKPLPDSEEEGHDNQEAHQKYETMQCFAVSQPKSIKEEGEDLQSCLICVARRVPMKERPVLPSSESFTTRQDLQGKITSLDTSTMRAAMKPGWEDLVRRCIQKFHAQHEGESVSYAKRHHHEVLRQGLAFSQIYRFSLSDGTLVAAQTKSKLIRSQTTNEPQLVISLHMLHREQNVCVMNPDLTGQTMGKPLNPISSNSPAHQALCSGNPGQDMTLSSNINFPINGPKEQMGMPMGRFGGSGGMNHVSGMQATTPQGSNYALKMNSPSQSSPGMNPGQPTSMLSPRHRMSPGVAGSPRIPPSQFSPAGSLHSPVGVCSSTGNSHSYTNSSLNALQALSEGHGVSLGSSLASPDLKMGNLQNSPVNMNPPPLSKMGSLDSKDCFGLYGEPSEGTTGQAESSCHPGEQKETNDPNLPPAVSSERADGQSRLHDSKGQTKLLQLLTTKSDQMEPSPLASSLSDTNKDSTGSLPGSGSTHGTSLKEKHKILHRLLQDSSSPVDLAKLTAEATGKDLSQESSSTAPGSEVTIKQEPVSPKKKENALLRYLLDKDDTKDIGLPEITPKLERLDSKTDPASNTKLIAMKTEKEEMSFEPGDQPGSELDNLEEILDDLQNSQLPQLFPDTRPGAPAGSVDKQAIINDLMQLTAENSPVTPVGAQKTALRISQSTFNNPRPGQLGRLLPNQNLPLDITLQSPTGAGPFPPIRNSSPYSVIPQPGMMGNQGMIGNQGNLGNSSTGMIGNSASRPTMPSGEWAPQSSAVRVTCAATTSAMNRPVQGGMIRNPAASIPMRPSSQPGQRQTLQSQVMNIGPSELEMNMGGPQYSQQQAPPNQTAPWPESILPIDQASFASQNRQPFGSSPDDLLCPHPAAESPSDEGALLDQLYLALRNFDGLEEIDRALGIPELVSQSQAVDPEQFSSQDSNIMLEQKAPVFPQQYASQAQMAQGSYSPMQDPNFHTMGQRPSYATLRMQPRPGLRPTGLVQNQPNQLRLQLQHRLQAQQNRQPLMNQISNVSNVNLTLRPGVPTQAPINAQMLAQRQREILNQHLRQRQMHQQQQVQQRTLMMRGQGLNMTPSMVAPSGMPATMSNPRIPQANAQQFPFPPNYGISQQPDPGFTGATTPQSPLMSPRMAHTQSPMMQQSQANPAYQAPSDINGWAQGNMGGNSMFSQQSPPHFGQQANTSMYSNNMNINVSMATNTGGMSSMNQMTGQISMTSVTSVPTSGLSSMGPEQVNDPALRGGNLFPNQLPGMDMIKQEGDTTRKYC

With `Cc1cc(CNC(=O)c2cc(COc3ccc(F)c(F)c3)on2)nn1C`, in the test on HeLa, the AC50 was 66.8 µM (active).
Regarding `Cc1cccc(N2CCN(C(=O)c3c(-c4ccccc4)noc3C)CC2)c1C`, the EC50 was 2.67 µM (active) with BJ [1]; 6.76 µM (active) in test [2]; 89.6 µM (active) with BJ [3]; 17.1 µM (active) in test [4]; 10.9 µM (active) in test [5]; 2.58 µM (active) in test [6]. For the same compound, the half-maximal effective concentration (EC50) with BJ [7] is 4.1 µM (active). In addition, the IC50 in test [8] was > 80 µM (inactive).
With `c1ccc(CCn2nnc3ccccc32)cc1`, the AC50 in the test on HeLa is 207 µM (active).
`COc1cc2c(cc1OC)CN(C(=O)c1ccc([N+](=O)[O-])o1)CC2`: the EC50 in [9] was 37.5 µM (active); in [10], 11.6 µM (active); in the test on H4 it was > 120 µM (not active). In addition, in the test “cells”, the IC50 was 0.14 µM (active). The CC50 in test [11] is > 40 µM (active).
With `COc1ccc2c(c1)CC/C2=N\OC(=O)c1ccccc1C`, the AC50 in the test with HeLa was 51.1 µM (active).
In the case of `Cn1cc(Cl)c(-c2nnc(S)n2-c2ccccc2)n1`, the EC50 in test [12] is > 79.4 µM (inactive); in test [13] it was > 79.4 µM (not active); in test [14], > 79.4 µM (not active).
As to `CCN(CC)CCOC(=O)c1ccc(NC(=O)c2cn(-c3ccccc3)nc2-c2cccs2)cc1`, the IC50 on Bcl-2-related protein A1 is > 20 µM (inactive); in test [15], 8.78 µM (active); in test [16], > 20 µM (inactive).
Consider `Cn1c(=O)c2c(ncn2Cc2ccc(Cl)c(Cl)c2)n(C)c1=O`, for which the IC50 is > 20 µM (inactive) at Bcl-2-related protein A1, 16.3 µM (active) in test [15] and 7.05 µM (active) in [16].
As for `COc1ccc(NC(=O)C2C3C=CC(C3)C2C(=O)NCc2ccco2)c(OC)c1` (stereo unspecified), the IC50 at Aminopeptidase N was 89.2 µM (active).
On to `CCCc1cc(C(=O)Nc2cc(C)ccc2O)no1`, for which the IC50 in test [8] is > 80 µM (inactive).
Take `NC(=O)N/N=C\c1cc(Br)ccc1O`: the IC50 on Aminopeptidase N was 50.6 µM (active).
Consider `COc1ccccc1OCc1nc2ccccc2[nH]1`, for which the concentration for a half-maximal effect (EC50) in test [17], in [18] and in test [19] was > 79.4 µM (not active) throughout.
In the case of `CN(C)c1ccnc2sc3c(SCc4ccc(Cl)cc4)ncnc3c12`, the AC50 with HeLa was 63.3 µM (active).
`CC(=O)c1ccc(NC(=O)CSc2nnc(C3CC3)n2C2CC2)cc1`: the concentration at half-maximal activity (AC50) in the test with Escherichia coli [20] is 109 µM (active).
For the compound `C=C(C)c1cccc(C(C)(C)NC(=O)Nc2ccc(C)cn2)c1`, the IC50 at Aminopeptidase N is 41.3 µM (active).
On to `COc1cc2nc(N3CCN(C(=O)c4ccco4)CC3)nc(N)c2cc1OC` [PRAZOSIN HYDROCHLORIDE], for which the cytotoxic concentration (CC50) in the test on Vero is 16.9 µM (active).
On the same count and under the same terms, then `O=C(N/N=C/c1cccn1-c1ccc([N+](=O)[O-])cc1)c1cccnc1`, with > 25 µM (active).
Turning to `CCOC(=O)C1=C(COC(=O)c2ncc(Cl)c(Cl)c2Cl)NC(=O)NC1C` (stereo unspecified), the IC50 on Bcl-2-related protein A1 was > 20 µM (inactive); in test [15], 7.88 µM (active); in [16], 9.23 µM (active).
On to `c1ccc2c(c1)CC/C2=N/Nc1nc2ccccc2[nH]1`, for which the 50% effective concentration (EC50) in test [21] was > 30 µM (not active); in [22], 2.6 µM (active); in [17] it was > 79.4 µM (not active); in test [18], > 79.4 µM (not active); in [19], > 79.4 µM (not active).
Consider `C=CC[C@@H](CC/C=C/C=C/CC/C=C\[C@@H]1CSC([C@@H]2C[C@@H]2C)=N1)OC`, for which the IC50 in test [8] is > 80 µM (inactive).
For `CCOC(=O)c1nc(NCc2ccccc2F)c2ccccc2n1`, the AC50 in the test on Escherichia coli [23] was > 150 µM (inactive); in the test on HEK293 it was > 350 µM (inactive); in the test with Escherichia coli [20], 52.7 µM (active).
For the compound `CCn1c(=O)cc(SCC(=O)Nc2ccc3c(c2)OCCO3)c2ccccc21`, the EC50 was 7.45 µM (active) in [12], 7.21 µM (active) in [13] and > 79.4 µM (not active) in test [14].
